Experimental data: BindingDB's records for doi:10.1021/jm00040a008 (Harvard Medical School, 1994)

Assay: Tested in vitro for inhibitory concentration against CCRF-CEM human Leukemic lymphoblast by using DHFR as primary target

CCC(Cc1cnc2nc(N)nc(N)c2n1)c1ccc(C(=O)N[C@@H](CCC(=O)O)C(=O)O)cc1 (stereo partly specified) [Edatrexate]
IC50: 2.6 nM
